According to patent publication US20080255206A1, “Rxr Agonists and Antagonists, Alone or in Combination with Ppar Ligands, in the Treatment of Metabolic and Cardiovascular Diseases” (priority 2005, published 2008):

Columns and labels:
[1] = molecular target: T1, RXRα (Homo sapiens, UniProt P19793); test: Retinoid activation assay, RXRα (Schneider SL-3 cells, luciferase reporter); assay type: cell-based; conditions: read-out: Activation EC50 RXR α
T1 sequence (P19793 1-462): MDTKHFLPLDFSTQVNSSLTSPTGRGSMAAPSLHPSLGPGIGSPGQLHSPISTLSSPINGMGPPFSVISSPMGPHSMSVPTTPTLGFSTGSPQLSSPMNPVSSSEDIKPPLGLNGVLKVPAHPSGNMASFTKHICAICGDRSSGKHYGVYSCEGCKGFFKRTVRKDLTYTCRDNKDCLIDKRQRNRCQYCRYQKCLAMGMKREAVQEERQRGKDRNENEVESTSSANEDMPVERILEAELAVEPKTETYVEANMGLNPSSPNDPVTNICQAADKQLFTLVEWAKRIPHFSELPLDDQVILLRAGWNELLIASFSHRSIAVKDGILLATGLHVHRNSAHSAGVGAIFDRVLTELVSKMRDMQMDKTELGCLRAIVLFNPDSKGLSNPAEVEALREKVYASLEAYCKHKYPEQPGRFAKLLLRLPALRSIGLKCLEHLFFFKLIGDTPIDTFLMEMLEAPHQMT
Method: (§1) Full length RXR cDNA is used for transfection. As reporter system, the luciferase gene is used in a construct with three copies of a RXR response element from rat CRBP gene, (formerly RARE from betaRAR gene), fused to alcoholdehydrogenase gene promoter in the plasmid pGL2-basic. Schneider SL-3 cells from Drosophila are transiently transfected 3-4 h before the experiment by the Ca-phosphate-DNA coprecipitation method. […] At the end of the incubation, the cell supernatants are assayed for luciferase activity. Results are given as EC50 (nM), the concentration leading to half-maximal activation.

[2] = molecular target: T2, RXRγ (Homo sapiens, UniProt P48443); test: Retinoid activation assay, RXRγ (Schneider SL-3 cells, luciferase reporter); assay type: cell-based; conditions: read-out: Activation EC50 RXR γ
T2 sequence (P48443 1-463): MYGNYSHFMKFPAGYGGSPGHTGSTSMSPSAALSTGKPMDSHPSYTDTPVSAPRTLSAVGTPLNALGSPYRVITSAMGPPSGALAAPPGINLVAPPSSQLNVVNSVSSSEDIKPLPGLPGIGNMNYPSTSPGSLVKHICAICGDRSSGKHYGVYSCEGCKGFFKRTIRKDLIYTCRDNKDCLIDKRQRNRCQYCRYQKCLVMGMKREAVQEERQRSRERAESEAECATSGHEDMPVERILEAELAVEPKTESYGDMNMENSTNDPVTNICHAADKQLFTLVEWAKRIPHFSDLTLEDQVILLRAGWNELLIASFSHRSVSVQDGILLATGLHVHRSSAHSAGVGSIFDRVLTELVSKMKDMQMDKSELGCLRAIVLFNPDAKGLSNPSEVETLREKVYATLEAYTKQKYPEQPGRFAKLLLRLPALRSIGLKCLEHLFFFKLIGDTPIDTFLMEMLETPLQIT
Method: as §1

[3] = molecular target: T3, RXRα Homodimer (Homo sapiens, UniProt P19793); test: RXRα homodimer activation (transactivation) assay; assay type: cell-based
T3 construct: expressed in transfected cells; host or cells: mammalian cells (BHK21, CV1, etc)
T3 sequence (P19793 1-462): T1 sequence (P19793 1-462)
Text: (§2) Nuclear hormone receptor (NHR) ligand dependent transcriptional transactivation assay.
This secondary in vitro functional assay to characterize hits from the primary ligand binding screens is a GAL4-LBD transactivation assay. The Gal4-LBD protein consists of an in frame fusion of the transcription factor galactose 4 DNA binding domain from S.cerevisiae with the ligand binding domain (LBD) of a particular NHR. Briefly, a plasmid construct expressing the recombinant chimeric receptor is co-transfected into mammalian cells (BHK21, CV1, etc) with a luciferase reporter plasmid containing several copies in tandem of the GAL4 binding sites (promoter recognition elements) upstream from the minimal promoter driving the luciferase gene. The transfected cells are treated with compounds for 12-24 hours, lysates are produced and assayed for luciferase activity and normalized to internal standards such as GH, growth hormone or SEAP, secreted alkaline phosphatase. Ligand binding stabilizes the LBD conformation that recruits endogenous co-factors that mediate eventually the increased transcriptional activity of the luciferase reporter gene. By comparing the activation profile of a reference ligand or a natural ligand, the EC50 values for agonistic activity of a particular ligand can be measured. The extent of activation that can be measured is indicative of a partial, respectively full agonistic activity of a ligand. […]

[4] = molecular target: T4, PPARγ/RXRα Heterodimer (Homo sapiens, UniProt P19793); test: PPARγ/RXRα heterodimer activation (transactivation) assay; assay type: cell-based
T4 construct: co-transfected with plasmids expressing the full length RXR heteropartner receptor; expressed in transfected cells
T4 sequence (P19793 1-462): T1 sequence (P19793 1-462)
T4 sequence (P37231 1-505 partner): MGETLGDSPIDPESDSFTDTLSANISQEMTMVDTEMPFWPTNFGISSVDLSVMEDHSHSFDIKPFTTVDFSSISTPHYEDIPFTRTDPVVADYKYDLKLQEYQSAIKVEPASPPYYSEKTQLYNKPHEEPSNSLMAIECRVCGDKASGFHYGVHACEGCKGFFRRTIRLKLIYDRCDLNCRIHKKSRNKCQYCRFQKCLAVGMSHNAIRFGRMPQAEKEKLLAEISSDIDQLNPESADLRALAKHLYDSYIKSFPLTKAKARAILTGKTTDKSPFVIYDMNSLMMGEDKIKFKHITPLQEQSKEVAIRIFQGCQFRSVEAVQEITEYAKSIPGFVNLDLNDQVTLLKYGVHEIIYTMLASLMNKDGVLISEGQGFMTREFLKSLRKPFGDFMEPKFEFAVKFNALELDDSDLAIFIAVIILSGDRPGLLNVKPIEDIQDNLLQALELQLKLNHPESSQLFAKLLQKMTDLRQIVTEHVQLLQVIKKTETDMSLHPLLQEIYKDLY
Text: as §2
Heterodimer reporter assays are potentially more important selection criteria for synthetic agonistic NHR ligands as they embody a more natural situation. Basically plasmids expressing the recombinant full length NHR are co-transfected with plasmids expressing the full length RXR heteropartner receptor and a reporter plasmid containing several copies of the natural responsive elements for the respective NHR driving the luciferase reporter gene.

[5] = molecular target: T1, RXRα; test: Retinoid binding assay, RXRα; parameters: made in house; host or cells: E. coli; conditions: [3H] 9-cis retinoic acid 20 nM; read-out: Binding Affinity IC50 RXR α
Text: (§3) The DEF domains of RAR's and the full length RXR's, expressed in E.coli, are used to measure competitive retinoid binding. […] 9-cis retinoic acid (for RXR's), respectively. […] Separation of bound from free radioactivity is achieved by charcoal/dextran (RAR's) or by desalting columns (RXR's). […] Retinoid Activation Assays

[6] = molecular target: T2, RXRγ; test: Retinoid binding assay, RXRγ; parameters: made in house; host or cells: E. coli; conditions: [3H] 9-cis retinoic acid 20 nM; read-out: Binding Affinity IC50 RXR γ
Text: as §3

Row | Compound | EC50 [1] | EC50 [2] | EC50 [3] | EC50 [4] | IC50 [5] | IC50 [6]
1 | CC(/C=C/[C@@H]1C[C@@H]1c1ccc2c(c1)C(C)(C)CCC2(C)C)=C\C(=O)O (racemic) [Compound 4, (2E,4E)-3-methyl-5-[(1RS,2RS)-2-(5,5,8,8-tetramethyl-5,6,7,8-tetrahydro-naphthalen-2-yl)-cyclopropyl]-penta-2,4-dienoic acid] | 3.5 nM | 50 nM | 3.5 nM | – | 84 nM | 127 nM
2 | CCCCOc1c([C@@H]2C[C@@H]2/C=C/C(C)=C/C(=O)O)cc(C(C)(C)C)cc1C(C)(C)C (racemic) [Compound 16, (2E,4E)-(1RS,2RS)-5-[2-(3,5-Di-tert-butyl-2-butoxy-phenyl)-cyclopropyl]-3-methyl-penta-2,4-dienoic acid] | ≥ 10000 nM | ≥ 10000 nM | > 10000 nM | > 10000 nM | 65 nM | 82 nM
3 | CC(/C=C/C1=C(c2ccc3c(c2)C(C)(C)CCC3(C)C)CCCC1)=C\C(=O)O [Compound 6, (2E,4E)-3-Methyl-5-[2-(5,5,8,8-tetramethyl-5,6,7,8-tetrahydro-naphthalen-2-yl)-cyclohex-1-enyl]-penta-2,4-dienoic acid] | 19 nM | 140 nM | 19 nM | – | 330 nM | 240 nM
4 | CC1=C(/C=C/C2=C(/C=C/C(C)=C/C(=O)O)CCCCC2)C(C)(C)CCC1 [Compound 1, (2E,4E)-3-methyl-5-[2-[(E)-2-(2,6,6-trimethyl-1-cyclohexen-1-yl)ethenyl]-1-cyclohepten-1-yl]-2,4-pentadienoic acid] | 1.4 nM | ≥ 10000 nM | 1.4 nM | 70 nM | 110 nM | 150 nM
5 | CC(/C=C/C1=C(c2ccc3c(c2)C(C)(C)CCC3(C)C)CCC1)=C\C(=O)O [Compound 12, (2E,4E)-3-Methyl-5-[2-(5,5,8,8-tetramethyl-5,6,7,8-tetrahydro-naphthalen-2-yl)-cyclopent-1-enyl]-penta-2,4-dienoic acid] | 9 nM | 150 nM | 9 nM | 7.7 nM | 80 nM | 120 nM
6 | CC1=C(/C=C/c2sccc2/C=C/C(C)=C/C(=O)O)C(C)(C)CCC1 [Compound 5, (2E,4E)-3-Methyl-5-[2-[(E)-2-(2,6,6-trimethyl-1-cyclohexen-1-yl)ethenyl]-3-thienyl]-2,4-pentadienoic acid] | 0.8 nM | ≥ 10000 nM | 0.8 nM | 1.5 nM | 150 nM | 160 nM
7 | CC(/C=C/c1ccccc1-c1ccc2c(c1)C(C)(C)CCC2(C)C)=C\C(=O)O [Compound 7, (2E,4E)-3-methyl-5-[2-(5,5,8,8-tetramethyl-5,6,7,8-tetrahydro-naphthalen-2-yl)-phenyl]-penta-2,4-dienoic acid] | 6 nM | 400 nM | 6 nM | – | 780 nM | 970 nM
8 | CCCCOc1c(\C(C)=C/C=C/C(C)=C/C(=O)O)cc(C(C)(C)C)cc1C(C)(C)C [Compound 15, (2E,4E,6Z)-7-[2-butoxy-3,5-bis(1,1-dimethylethyl)phenyl]-3-methyl-2,4,6-octatrienoic acid] | ≥ 10000 nM | ≥ 10000 nM | > 10000 nM | > 10000 nM | 30 nM | 47 nM

Next, values leading:

Row | EC50 [1] | EC50 [2] | EC50 [3] | EC50 [4] | IC50 [5] | IC50 [6] | Compound
9 | ≥ 10000 nM | ≥ 10000 nM | > 10000 nM | 1.25 nM | 24 nM | 57 nM | CCOc1c(\C(C)=C/C=C/C(C)=C/C(=O)O)cc(C(C)(C)C)cc1C(C)(C)C [Compound 21, (2E,4E,6Z)-7-[3,5-Bis(1,1-dimethylethyl)-2-ethoxyphenyl]-3-methyl-2,4,6-octatrienoic acid/ethyl ester]
10 | 6 nM | 50 nM | 6 nM | 7 nM | 110 nM | 140 nM | CC1=C(/C=C/C2=C(/C=C/C(C)=C/C(=O)O)CCC2)C(C)(C)CCC1 [Compound 14, (2E,4E)-3-Methyl-5-[2-[(E)-2-(2,6,6-trimethyl-1-cyclohexen-1-yl)ethenyl]-1-cyclopenten-1-yl]-2,4-pentadienoic acid]
11 | ≥ 10000 nM | ≥ 10000 nM | > 10000 nM | 3.5 nM | 680 nM | 660 nM | CCC1(CC)CCC(C)(C)c2cc(\C(C)=C/C=C/C(C)=C/C(=O)O)ccc21 [Compound 24, (2E,4E,6Z)-7-(5,5-Diethyl-8,8-dimethyl-5,6,7,8-tetrahydro-naphthalen-2-yl)-3-methyl-octa-2,4,6-trienoic acid]
12 | ≥ 10000 nM | ≥ 10000 nM | > 10000 nM | > 10000 nM | 95 nM | 65 nM | CC1=C(C#CC2=C(/C=C/C(C)=C/C(=O)O)CCCCC2)C(C)(C)CCC1 [Compound 18]
13 | 1.5 nM | 400 nM | 1.5 nM | 23 nM | 184 nM | 147 nM | C/C(=C/C=C/C(C)=C/C(=O)O)c1cc2c(cc1C)C(C)(C)CCCC2 [Compound 13, (2E,4E,6Z)-3-Methyl-7-(3,5,5,-trimethyl-6,7,8,9-tetrahydro-5H-benzocyclohepten-2-yl)-octa-2,4,6-trienoic acid]
14 | ≥ 10000 nM | ≥ 10000 nM | > 10000 nM | > 10000 nM | 49 nM | 69 nM | CCOc1c([C@@H]2C[C@@H]2/C=C/C(C)=C/C(=O)O)cc(C(C)(C)C)cc1C(C)(C)C (racemic) [Compound 17, (2E,4E)-(1RS,2RS)-5-[2-(3,5-Di-tert-butyl-2-ethoxy-phenyl)-cyclopropyl]-3-methyl-penta-2,4-dienoic acid]
